1 compound from BindingDB's records for doi:10.1016/j.bioorg.2017.03.006 (CSIR-Indian Institute of Chemical Biology, 2017) can be followed below.

This experiment addresses Alpha-glucosidase MAL32 (Saccharomyces cerevisiae (strain ATCC 204508 / S288c), UniProt P38158). Kind of experiment: α-Glucosidase Inhibition Assay. To be noted: pH 6.8; 37 °C. As for the experimental part: Briefly, the sample solution (25 μL, 1.0 mM solution in DMSO) was mixed with enzyme solution (25 μL, 0.5 U/mL prepared in 0.1 M phosphate buffer, pH 6.8). […] After the incubation, the substrate p-nitrophenyl α-D-glucopyranoside (25 μL, 0.5 mM, 0.1 Mphosphate buffer, pH 6.8) was added to the mixture and allowed to incubate at 37 ± 1 °C for 30 min. The reaction was then terminated by the addition of aqueous solution of sodium carbonate (100 μL, 0.2 M). […] The uninhibited enzyme solution was taken as blank and an appropriate DMSO control was used. […] The concentration of DMSO in the final solution was maintained below 5.0% so that the enzyme activity was not destroyed.

Chain of Alpha-glucosidase MAL32 (P38158 whole entry): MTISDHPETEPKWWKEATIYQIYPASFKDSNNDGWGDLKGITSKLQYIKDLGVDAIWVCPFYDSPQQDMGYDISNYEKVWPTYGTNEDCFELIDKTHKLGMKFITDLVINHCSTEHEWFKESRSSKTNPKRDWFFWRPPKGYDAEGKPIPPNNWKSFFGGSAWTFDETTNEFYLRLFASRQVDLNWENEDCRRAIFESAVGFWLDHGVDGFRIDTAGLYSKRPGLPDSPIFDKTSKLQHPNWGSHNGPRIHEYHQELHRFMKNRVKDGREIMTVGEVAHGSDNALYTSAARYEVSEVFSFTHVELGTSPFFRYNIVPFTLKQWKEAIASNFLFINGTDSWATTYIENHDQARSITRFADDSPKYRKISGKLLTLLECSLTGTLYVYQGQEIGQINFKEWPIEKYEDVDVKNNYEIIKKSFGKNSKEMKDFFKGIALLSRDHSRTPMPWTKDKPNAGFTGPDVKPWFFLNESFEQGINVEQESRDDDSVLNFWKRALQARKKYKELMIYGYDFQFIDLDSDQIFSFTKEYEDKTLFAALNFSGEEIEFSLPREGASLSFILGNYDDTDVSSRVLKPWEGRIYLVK

Usually IC50 stands for the concentration at which inhibition is half-maximal. Compound `O=C(CCc1cn(-c2ccc(O)cc2)nn1)N[C@@H]1OC(CO)[C@@H](O)C(O)C1O` (stereo partly drawn) [3-[1-(4-Hydroxyphenyl)-1H-[1,2,3]triazol-4-yl]-N-(2,3,4,6-tetra-O-acetyl-β-D-glucopyranosyl)propanamide (4f)] gave an IC50 of 148 µM.
